Measured values taken from ChEMBL document CHEMBL3621192, “Novel anti-HIV-1 NNRTIs based on a pyrazolo[4,3-d]isoxazole backbone scaffold: design, synthesis and insights into the molecular basis of action” (Medchemcomm, 2014).
pEC50, pIC50: −log10 of the molar value.

Key:
[1] = Metabolic stability in rat plasma assessed as half life; assay type: ADME, cell-free
[2] = Therapeutic index, ratio of CC50 for human CEM-SS cells to EC50 for HIV1 RF infected in CEM-SS cells; assay type: cell-based; settings: read-out: Ratio CC50/EC50
[3] = system: Human immunodeficiency virus 1; experiment: Antiviral activity against HIV1 RF infected in CEM-SS cells assessed as inhibition of virus-induced cytopathic effect by MTS assay; assay type: functional, organism-based; settings: Human immunodeficiency virus 1, RF
[4] = molecular target: Human immunodeficiency virus type 1 reverse transcriptase (Human immunodeficiency virus 1, UniProt Q72547); experiment: Inhibition of HIV1 recombinant reverse transcriptase assessed as incorporation of [32P]GTP into poly(rC).oligo(dG) template primer
[5] = Cytotoxicity against human MT4 cells by MTT assay; assay type: cell-based
[6] = system: Human immunodeficiency virus 1; experiment: Antiviral activity against HIV1 3B infected in MT4 cells assessed as inhibition of virus-induced cytopathic effect by MTT assay; assay type: functional, organism-based; settings: Human immunodeficiency virus 1, 3B
[7] = Cytotoxicity against human CEM-SS cells by MTS assay; assay type: cell-based
[8] = Therapeutic index, ratio of CC50 for human MT4 cells to EC50 for HIV1 3B infected in MT4 cells; assay type: cell-based; settings: read-out: Ratio CC50/EC50

Structure (SMILES) | half-life [1] | selectivity ratio [2] | pEC50 [3] | pIC50 [4] | CC50 [5] | pEC50 [6] | CC50 [7] | selectivity ratio [8]
Cc1nc(N2Nc3onc(-c4ccccc4)c3C2c2ccc(Cl)cc2)sc1/N=N/c1ccc([N+](=O)[O-])cc1 (stereo unspecified) | 6.08 h | 1000 | 9.60 | 10.57 | 280 nM | 9.74 | 250 nM | 1560
CC1=C(/N=N/c2ccc(Cl)cc2)N=C(N2Nc3onc(-c4ccccc4)c3C2c2ccc(Cl)cc2)NN1 (stereo unspecified) | 4.05 h | 403 | 9.17 | 10.55 | 450 nM | 9.43 | 270 nM | 1220
Cc1ccc(/N=N/c2sc(N3Nc4onc(-c5ccccc5)c4C3c3ccc(Cl)cc3)nc2C)cc1 (stereo unspecified) | 5.72 h | 1000 | 9.60 | 10.57 | 450 nM | 9.26 | 250 nM | 818
Cc1nc(N2Nc3onc(-c4ccccc4)c3C2c2ccc(Cl)cc2)sc1/N=N/c1ccc(Cl)cc1 (stereo unspecified) | 7.57 h | 917 | 9.44 | 10.46 | 340 nM | 9.34 | 330 nM | 739
COc1ccc(/N=N/c2sc(N3Nc4onc(-c5ccccc5)c4C3c3ccc(Cl)cc3)nc2C)cc1 (stereo unspecified) | 3.9 h | 971 | 9.46 | 10.44 | 460 nM | 9.36 | 340 nM | 1050
Cc1nc(N2Nc3onc(-c4ccccc4)c3C2c2ccc(Cl)cc2)sc1/N=N/c1ccc(Br)cc1 (stereo unspecified) | 4.07 h | 412 | 9.47 | 10.80 | 390 nM | 9.57 | 140 nM | 1440
Cc1nc(N2Nc3onc(-c4ccccc4)c3C2c2ccc(Cl)cc2)sc1/N=N/c1ccccc1 (stereo unspecified) | 4.42 h | 833 | 9.27 | 10.72 | 260 nM | 9.52 | 450 nM | 867
Cc1csc(N2Nc3onc(-c4ccccc4)c3C2c2ccc(Cl)cc2)n1 (stereo unspecified) | 5.72 h | 936 | 9.33 | 10.34 | 230 nM | 9.46 | 440 nM | 657
NC(=S)N1Nc2onc(-c3ccccc3)c2C1c1ccc(Cl)cc1 (stereo unspecified) | 2.2 h | 462 | 9.11 | 10.43 | 340 nM | 9.55 | 360 nM | 1210
CC1=C(/N=N/c2ccc(C)cc2)N=C(N2Nc3onc(-c4ccccc4)c3C2c2ccc(Cl)cc2)NN1 (stereo unspecified) | 2.57 h | 837 | 9.37 | 10.72 | 330 nM | 9.31 | 360 nM | 673
N/N=C(\N)N1Nc2onc(-c3ccccc3)c2C1c1ccc(Cl)cc1 (stereo unspecified) | 4.57 h | 739 | 9.34 | 10.74 | 170 nM | 9.54 | 340 nM | 586
O=C1Nc2ccc(Cl)cc2[C@@](C#CC2CC2)(C(F)(F)F)O1 [EFAVIRENZ] | 1.48 h | – | 9.04 | – | 320 nM | 9.01 | 550 nM | –
CC1=C(/N=N/c2ccccc2)N=C(N2Nc3onc(-c4ccccc4)c3C2c2ccc(Cl)cc2)NN1 (stereo unspecified) | 2.05 h | 523 | 9.36 | 10.35 | 450 nM | 9.48 | 230 nM | 1360
